Source: patent publication US7015196B1, “Basic monocyclic compounds having Nk2 antagonist action, processes for their preparation, and formulations containing them” (Menarini Ricerche S.p.A., priority 1999, dated 2006)

Experiments:
human NK2 receptor = biological target: T1, human NK2 receptor (Homo sapiens, UniProt P21452); test: binding test, [125I]NKA competition on membranes of CHO cells transfected with the NK2 receptor of human ileum; conditions: CHO cell membranes, [125I]NKA 100 pM, 30 min, 20° C.
T1 construct: expressed in transfected cells; host or cells: CHO cells (membranes)
T1 sequence (P21452 1-398): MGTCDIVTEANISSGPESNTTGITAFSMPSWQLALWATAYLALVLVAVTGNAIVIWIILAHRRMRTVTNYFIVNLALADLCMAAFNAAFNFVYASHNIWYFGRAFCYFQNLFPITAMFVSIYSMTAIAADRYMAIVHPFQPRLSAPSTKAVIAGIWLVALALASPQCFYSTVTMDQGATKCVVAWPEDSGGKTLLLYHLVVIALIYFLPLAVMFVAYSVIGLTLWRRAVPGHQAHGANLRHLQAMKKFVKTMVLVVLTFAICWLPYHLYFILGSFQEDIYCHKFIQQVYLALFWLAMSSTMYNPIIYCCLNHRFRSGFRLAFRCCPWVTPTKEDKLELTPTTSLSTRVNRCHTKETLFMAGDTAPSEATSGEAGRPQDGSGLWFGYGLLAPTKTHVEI
Description: (§1) The compounds described in the present invention act as antagonists to the NK2 receptor of tachykinins. The biological activity was evaluated in three in vitro functional tests, using rabbit pulmonary artery (RPA), hamster trachea (HT) and rat urinary bladder (RUB), according to the methods described by C. A. Maggi et al., Br. J. Pharmacol., 1990, 100, 588; P. D'Orleans-Juste et al., Eur. J. Pharmacol., 1986, 125, 37; and C. A. Maggi et al., J. Pharmacol. Exp. Ther., 1988, 246, 308. The affinity of the compounds for the human NK2 receptor was evaluated in a binding test using membranes of Chinese hamster ovary (CHO) cells transfected with the NK2 receptor of human ileum and the radioligand [^125I]NKA (Amersham, […] 2000 Ci/mmol) at the concentration of 100 pM in competition studies. The substances under examination were tested in a concentration range between 0.01 nM and […]. At the end of incubation (30 min, 20° C.) the test specimens were filtered, and radioactivity was determined using a gamma-counter.
(§2) The data emerging from the functional studies were expressed as pA2 (O. Arunlakshana and H. O. Shild, Br. J. Pharmacol. Chemother., 1959, 14, 45), and the data emerging from the binding studies were expressed as pKi (log Ki calculated with the LIGAND program; P. J. Munson et al., Anal. Biochem., 1980, 107, 220).

[1] = biological target: T2, NK2 receptor of tachykinins (Rattus norvegicus, UniProt P16610); test: in vitro functional test, rat urinary bladder (RUB); format: cell-based; conditions: for Kb: read-out: pA2 RUB (converted)
T2 construct: from tissue; host or cells: rat urinary bladder
T2 sequence (P16610 1-390): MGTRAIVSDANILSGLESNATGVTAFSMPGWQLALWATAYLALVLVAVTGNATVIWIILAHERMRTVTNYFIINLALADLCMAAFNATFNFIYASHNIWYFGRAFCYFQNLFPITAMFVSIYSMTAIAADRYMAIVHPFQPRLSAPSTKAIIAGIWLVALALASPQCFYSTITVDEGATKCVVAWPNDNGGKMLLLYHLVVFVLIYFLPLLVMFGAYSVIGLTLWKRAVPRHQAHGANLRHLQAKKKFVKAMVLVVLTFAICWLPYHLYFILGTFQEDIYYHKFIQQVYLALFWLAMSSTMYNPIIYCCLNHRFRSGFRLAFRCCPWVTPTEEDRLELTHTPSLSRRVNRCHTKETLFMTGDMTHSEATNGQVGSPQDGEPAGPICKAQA
Description: as §1, §2

[2] = biological target: T3, NK2 receptor of tachykinins (Oryctolagus cuniculus, UniProt P79218); test: in vitro functional test, rabbit pulmonary artery (RPA); format: cell-based; conditions: read-out: pA2 RPA (converted)
T3 construct: from tissue; host or cells: rabbit pulmonary artery
T3 sequence (P79218 1-384): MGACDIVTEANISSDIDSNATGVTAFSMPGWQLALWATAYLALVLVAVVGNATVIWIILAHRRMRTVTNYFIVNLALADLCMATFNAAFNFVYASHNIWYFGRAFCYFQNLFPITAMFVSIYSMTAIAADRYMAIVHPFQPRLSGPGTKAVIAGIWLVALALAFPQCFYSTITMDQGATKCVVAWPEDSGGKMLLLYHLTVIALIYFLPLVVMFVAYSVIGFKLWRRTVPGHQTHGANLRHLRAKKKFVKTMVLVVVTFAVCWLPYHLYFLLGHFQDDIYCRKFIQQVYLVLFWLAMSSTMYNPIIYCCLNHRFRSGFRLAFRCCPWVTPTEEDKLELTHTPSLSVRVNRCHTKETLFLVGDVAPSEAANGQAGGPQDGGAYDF
Description: as §1, §2

[3] = biological target: T4, NK2 receptor of tachykinins (Mesocricetus auratus, UniProt P51144); test: in vitro functional test, hamster trachea (HT); format: cell-based; conditions: read-out: pA2 HT (converted)
T4 construct: from tissue; host or cells: hamster trachea
T4 sequence (P51144 1-384): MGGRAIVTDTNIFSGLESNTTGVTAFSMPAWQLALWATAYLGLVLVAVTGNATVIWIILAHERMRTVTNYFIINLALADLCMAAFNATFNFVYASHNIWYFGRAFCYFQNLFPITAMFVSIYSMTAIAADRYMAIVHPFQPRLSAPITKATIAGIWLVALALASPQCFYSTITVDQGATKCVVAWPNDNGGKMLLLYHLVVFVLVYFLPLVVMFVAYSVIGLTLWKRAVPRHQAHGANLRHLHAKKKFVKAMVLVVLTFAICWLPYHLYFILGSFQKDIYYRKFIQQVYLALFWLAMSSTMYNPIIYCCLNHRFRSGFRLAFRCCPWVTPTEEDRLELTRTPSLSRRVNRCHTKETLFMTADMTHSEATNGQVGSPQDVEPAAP
Description: as §1, §2

Row | Ki (human NK2 receptor) [nM] | Kb [1] [nM] | pKi (human NK2 receptor) | Kb [2] [nM] | Kb [3] [nM] | SMILES | pA2 RUB [1]
1 | 0.0501 | 0.794 | – | – | – | O=C1CC(C(=O)N2CCC(N3CCCCC3)CC2)C(=O)NCC(Cc2ccccc2)NC(=O)C(Cc2ccccc2)NC(=O)C(Cc2c[nH]c3ccccc23)N1 (single isomer, unassigned) [Example 7, cyclo{-Suc[1-(R or S)-(1,4′)-bipiperidinyl-1′-carbonyl]-Trp-Phe[(R)—NH—CH(CH2—C6H5)—CH2NH]-}] | –
2 | 0.2 | 0.158 | – | – | – | O=C1C[C@@H](NC(=O)CN2CCC(N3CCOCC3)CC2)C(=O)NC[C@@H](Cc2ccccc2)NC(=O)[C@H](Cc2ccccc2)NC(=O)[C@H](Cc2c[nH]c3ccccc23)N1 [Example 2, cyclo{-Suc[1-(R)-2(4-morpholin-4-yl-piperidin-1-yl)-acetyl amino]-Trp-Phe-[(R)—NH—CH(CH2—C6H5)—CH2NH]-}] | –
3 | – | – | 9.6 | – | – | O=C1C[C@@H](NC(=O)CN2CCC(N3CCCCC3)CC2)C(=O)NC(Cc2c[nH]c3ccccc23)C(=O)NC(Cc2ccc(F)cc2)C(=O)N[C@H](Cc2ccccc2)CN1 (stereo partly drawn) [Example 3, cyclo{-Suc[1-(R)-2(1,4′)-bipiperidinyl-1′-yl-acetyl amino]-Trp-Phe-(4-F)-[(R)—NH—CH(CH2—C6H5)—CH2NH]-}] | 9.3
4 | 0.316 | – | – | – | – | O=C1CC(C(=O)N2CCC(N3CCCCC3)CC2)C(=O)NCC(Cc2ccccc2)NC(=O)C(Cc2ccccc2)NC(=O)C(Cc2c[nH]c3ccccc23)N1 (single isomer, unassigned) [Example 8, cyclo{-Suc[1-(S or R)-(1,4′)-bipiperidinyl-1′-carbonyl]-Trp-Phe[(R)—NH—CH(CH2—C6H5)—CH2NH]-}] | –
5 | – | 0.631 | 9.4 | 2 | 1.58 | O=C1C[C@@H](NC(=O)CN2CCC(N3CCCCC3)CC2)C(=O)NC[C@@H](Cc2ccccc2)NC(=O)[C@H](Cc2ccccc2)NC(=O)[C@H](Cc2c[nH]c3ccccc23)N1 [Example 1, cyclo{-Suc[1-(R)-2(1,4′)-bipiperidinyl-1′-yl-acetyl amino]-Trp-Phe-[(R)—NH—CH(CH2—C6H5)—CH2NH]-}] | –

Row | SMILES | Ki (human NK2 receptor) [nM] | Kb [1] [nM] | pKi (human NK2 receptor) | Kb [2] [nM] | Kb [3] [nM] | pA2 RUB [1]
6 | O=C1C[C@@H](NC(=O)CN2CCC(N3CCOCC3)CC2)C(=O)NC(Cc2c[nH]c3ccc(F)cc23)C(=O)NC(Cc2ccccc2)C(=O)N[C@H](Cc2ccccc2)CN1 (stereo partly drawn) [Example 4, cyclo{-Suc[1-(R)-2(4-morpholinyl-4-piperidinyl-1-yl-acetyl)amino]-Trp-(5-F)-Phe-[(R)-N H—CH(CH2—C6H5)—CH2NH]-}] | – | – | 10.1 | – | – | 9.7
